pIC50: −log10 of the molar value.

The target in this assay is T1, purified mutant MGL (mut-MGLL 11-313 L179S L186S) (Homo sapiens, UniProt Q99685, L169S/L176S).
T1 construct: purified mutant MGL (mut-MGLL 11-313 L179S L186S)
T1 sequence (Q99685 1-303 L169S/L176S): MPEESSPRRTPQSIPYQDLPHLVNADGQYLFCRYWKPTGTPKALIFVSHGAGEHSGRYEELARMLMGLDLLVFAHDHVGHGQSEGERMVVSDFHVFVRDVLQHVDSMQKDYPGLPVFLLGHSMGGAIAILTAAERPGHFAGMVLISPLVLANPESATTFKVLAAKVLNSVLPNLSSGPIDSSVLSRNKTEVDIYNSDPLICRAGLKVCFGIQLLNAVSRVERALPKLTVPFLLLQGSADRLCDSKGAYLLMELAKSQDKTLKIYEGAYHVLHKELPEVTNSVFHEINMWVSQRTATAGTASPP
Briefly: MGL enzyme activity assay (4MU-B cleavage), mutant MGL. The settings on record: mutant MGL 5 nM, 4MU-B 10 μM, 37° C.; read-out: MGL mutant inh IC50. Type of assay: biochemical. The procedure:
All rate-based assays were performed in black 384-well polypropylene PCR microplates (Abgene) in a total volume of 30 μL. Substrate 4-methylumbelliferyl butyrate (4MU-B; Sigma) and either purified mutant MGL (mut-MGLL 11-313 L179S L186S) or purified wild type MGL (wt-MGLL 6H-11-313) were diluted separately into 20 mM PIPES buffer (pH=7.0), containing 150 mM NaCl and 0.001% Tween 20. Compounds of Formula (I) were pre-dispensed (50 nL) into the assay plate using a Cartesian Hummingbird prior to adding 4MU-B (25 μL of 1.2× solution to a final concentration of 10 μM) followed by enzyme (5 μL of a 6× solution to a final concentration of 5 nM) to initiate the reaction. Final compound concentrations ranged from 17 to 0.0003 μM. The fluorescence change due to 4MU-B cleavage was monitored with excitation and emission wavelengths of 335 and 440 nm, respectively, and a bandwidth of 10 nm (Safire^2, Tecan) at 37° C. for 5 min.
The IC50 values for the following compounds were determined using Microsoft Office Excel from a fit of the equation to the concentration-response plot of the fractional activity as a function of inhibitor concentration.
`O=C(c1ccc(Cc2ccccc2)cc1)N1CC(N[C@@H]2CCN(C(=O)c3ccccc3)C2)C1` [Cpd 7, (3R)-N-{1-[(4-Benzylphenyl)carbonyl]azetidin-3-yl}-1-(phenylcarbonyl)pyrrolidin-3-amine]: the pIC50 is 5.69.

Regarding `O=C(c1nccs1)N1CC[C@H](NC2CN(C(=O)N3CCc4cc(Br)ccc4C3)C2)C1` [Cpd 10, (S)-(3-((1-(6-Bromo-1,2,3,4-tetrahydroisoquinoline-2-carbonyl)azetidin-3-yl)amino)pyrrolidin-1-yl)(thiazol-2-yl)methanone], the pIC50 was 5.54. Take `O=C(c1nccs1)N1CC[C@H](NC2CN(C(=O)N3CCc4cc(-c5ccccc5)ccc4C3)C2)C1` [Cpd 11, (S)-(3-((1-(6-Phenyl-1,2,3,4-tetrahydroisoquinoline-2-carbonyl)azetidin-3-yl)amino)pyrrolidin-1-yl)(thiazol-2-yl)methanone]: the negative-log IC50 (pIC50) was 6.46. Take `O=C(c1nccs1)N1CC[C@H](NC2CN(C(=O)N3Cc4ccc(Br)cc4C3)C2)C1` [Cpd 12, (3S)-N-{1-[(5-Bromo-1,3-dihydro-2H-isoindol-2-yl)carbonyl]azetidin-3-yl}-1-(1,3-thiazol-2-ylcarbonyl)pyrrolidin-3-amine]: the pIC50 is 5.21. With `O=C(c1nccs1)N1CC[C@H](NC2CN(C(=O)N3Cc4ccc(-c5ccccc5)cc4C3)C2)C1` [Cpd 13, (3S)-N-{1-[(5-Phenyl-1,3-dihydro-2H-isoindol-2-yl)carbonyl]azetidin-3-yl}-1-(1,3-thiazol-2-ylcarbonyl)pyrrolidin-3-amine], the pIC50 was 6.14. For the compound `O=C(c1ccccc1)N1CC[C@H](NC2CN(C(=O)c3cc4cc(C(F)(F)F)ccc4s3)C2)C1` [Cpd 19, (3S)-1-(Phenylcarbonyl)-N-(1-{[5-(trifluoromethyl)-1-benzothiophen-2-yl]carbonyl}azetidin-3-yl)pyrrolidin-3-amine], the pIC50 was 6.44. With `O=C(c1ccc2c(-c3ccc(OC(F)(F)F)cc3)cccc2c1)N1CC(N[C@H]2CCN(C(=O)c3ccccc3)C2)C1` [Cpd 26, (3S)-1-(Phenylcarbonyl)-N-[1-({5-[4-(trifluoromethoxy)phenyl]naphthalen-2-yl}carbonyl)azetidin-3-yl]pyrrolidin-3-amine], the negative logarithm of the IC50 (pIC50) is 6.90. Take `O=C(c1ccc(-c2ccc(C(F)(F)F)cc2)cc1)N1CC(N[C@H]2CCN(C(=O)c3ccccc3)C2)C1` [Cpd 35, (3S)-1-(Phenylcarbonyl)-N-(1-{[4′-(trifluoromethyl)biphenyl-4-yl]carbonyl}azetidin-3-yl)pyrrolidin-3-amine]: the pIC50 was 6.80. With `O=C(c1ccc(-c2ccc(OC(F)(F)F)cc2)cc1)N1CC(N[C@H]2CCN(C(=O)c3ccccc3)C2)C1` [Cpd 36, (3S)-1-(Phenylcarbonyl)-N-(1-{[4′-(trifluoromethoxy)biphenyl-4-yl]carbonyl}azetidin-3-yl)pyrrolidin-3-amine], the pIC50 was 6.72. As to `O=C(c1ccccc1)N1CC[C@H](NC2CN(C(=O)c3cc4ccc(Br)cc4s3)C2)C1` [Cpd 38, (3S)-N-{1-[(6-Bromo-1-benzothiophen-2-yl)carbonyl]azetidin-3-yl}-1-(phenylcarbonyl)pyrrolidin-3-amine], the pIC50 was 6.52.

For `O=C(c1ccccc1)N1CC[C@H](NC2CN(C(=O)c3cc4ccc(-c5ccc(C(F)(F)F)cc5)cc4s3)C2)C1` [Cpd 43, (3S)-1-(Phenylcarbonyl)-N-[1-({6-[4-(trifluoromethyl)phenyl]-1-benzothiophen-2-yl}carbonyl)azetidin-3-yl]pyrrolidin-3-amine], the negative-log IC50 (pIC50) was 6.57. Regarding `O=C(c1ccc(-c2ccccc2)cc1)N1CC(N[C@H]2CCN(C(=O)c3ccc(F)cc3)C2)C1` [Cpd 45, (3S)-N-[1-(Biphenyl-4-ylcarbonyl)azetidin-3-yl]-1-[(4-fluorophenyl)carbonyl]pyrrolidin-3-amine], the negative-log IC50 (pIC50) was 5.79. `O=C(c1ccc(-c2ccccc2)cc1)N1CC(N[C@H]2CCN(C(=O)c3cccc(F)c3)C2)C1` [Cpd 46, (3S)-N-[1-(Biphenyl-4-ylcarbonyl)azetidin-3-yl]-1-[(3-fluorophenyl)carbonyl]pyrrolidin-3-amine]: the pIC50 is 6.47.

For orientation: pIC50 means −log10 of the IC50, conventionally taken in molar units.

For the origin of these results see patent US8748417B2, “Amino-pyrrolidine-azetidine diamides as monoacylglycerol lipase inhibitors” (Janssen Pharmaceutica, NV, priority 2010, dated 2014).
